# According to patent EP2924040A1, “2-Amino-1-(o-tolyl)pyrrolo[3,2-b]quinoxaline-3-carboxamide derivates” (Universität Zürich, priority 2014, dated 2015):
# Legend:
# Assay in all cases: NCI DTP Human Tumor Cell Line Screen (SRB)
# Assay type in all cases: cell-based
# Breast HS578T = settings: Hs-578T, 48 h
# Description: (§1) Compound 2 was further screened against cancer cell lines by the National Cancer Institute (NCI). This screen was performed as per the description provided at http://dtp.nci.nih.gov/branches/btb/ivclsp.html. "The NCI 60 panel cell lines were grown in RPMI 1640 medium supplemented with 5% (v/v) fetal bovine serum and 2 mM L-glutamine at 37° C, 5 % CO2, 95 % air and 100 % relative humidity. Cells were seeded at 5,000 - 40,000 cells/well depending on their doubling time. After 24 hours of incubation, DMSO stock solutions of the compounds (400X) were added at 5 different concentrations (in […] serial dilutions). After 48 h cells were fixed with trichloroacetic acid (10% or 16% final concentration for adherent cells and suspension cells respectively) and incubated for 60 minutes at 4°C. After discarding the supernatant, plates were washed with water (5x) and air dried. Sulforhodamine B (SRB) solution (100 µl) at 0.4 % (w/v) in 1% acetic acid was added to each well and incubated for 10 minutes at 4°C, followed by washing with 1% acetic acid (5x) and air drying. The bound stain was solubilized with 10mM trizma base and determined by absorbance measurement on an automated plate reader at a wavelength of 515 nm. The percentage growth inhibition was calculated as followed, being Tz time zero measurements, C control growth measurements and Ti test growth experiments in the present of the drug. [(Ti-Tz)/(C-Tz)] x 100 for concentrations for which Ti>/=Tz [(Ti-Tz)/Tz] x 100 for concentrations for which Ti<Tz.
# (§2) Three dose response parameters were calculated for each cell line. Growth inhibition of 50% (GI50) is calculated from [(Ti-Tz)/(C-Tz)] x 100 = 50 and corresponds to the drug concentration required in order to reduce by 50% the net protein increase in comparison to the control experiments. Total growth inhibition (TGI) is calculated from Ti = Tz. The LC50 indicates the drug concentration needed to reduce by 50% the measured protein at the end of the drug treatment as compared to that of the beginning and is derived from [(Ti-Tz)/Tz] x 100 = -50." Table 2: GI50 in a selection of cancer cell lines of the National Cancer Institute for compound 2
# Breast MDA-MB-231 = settings: Breast MDA-MB-231, 48 h
# Description: as §1, §2
# CNS SNB75 = settings: SNB-75, CNS SNB75, 48 h
# Description: as §1, §2
# Colon HT29 = settings: HT-29, Colon HT29, 48 h
# Description: as §1, §2
# Leukemia K562 = settings: Leukemia K562, 48 h
# Description: as §1, §2
# NSCLC HOP92 = settings: HOP-92, NSCLC HOP92, 48 h
# Description: as §1, §2
# Renal A498 = settings: Renal A498, 48 h
# Description: as §1, §2
# Renal RXF393 = settings: RXF 393, Renal RXF393, 48 h
# Description: as §1, §2
structure (smiles),measurement,setting,value
"Cc1ccc(O)cc1-n1c(N)c(C(N)=O)c2nc3ccccc3nc21 [Compound 2, 2-Amino-1-(5-hydroxy-2-methylphenyl)-1H-pyrrolo[2,3-b]quinoxaline-3-carboxamide]",GI50,Breast HS578T,100 nM
same,GI50,Breast MDA-MB-231,317 nM
same,GI50,CNS SNB75,28 nM
same,GI50,Colon HT29,244 nM
same,GI50,Leukemia K562,229 nM
same,GI50,NSCLC HOP92,152 nM
same,GI50,Renal A498,162 nM
same,GI50,Renal RXF393,361 nM
